pIC50: −log10 of the molar value.
Legend:
Format in all cases: cell-based
[1] = biological target: T1, CDK4-NanoLuc fusion with CCND1 in 293T or 293 cells (Homo sapiens, UniProt P11802); experiment: NanoBRET Target Engagement (TE) Intracellular Kinase Assay, CDK4/CCND1; settings: NanoBRET TE intracellular kinase assay, 2-hour incubation, read-out: NanoBRET-CDK4/D1 IC50
T1 construct: host or cells: 293T (ATCC CRL-3216) or 293 (ATCC CRL-1573)
Protocol: (§1) Inhibitory effects of compounds were measured in NanoBRET TE Intracellular Kinase Assay. […] Cells were co-transfected with 1 μg/mL of CDK-NanoLuc Fusion Vector (Promega; NV2701 for CDK1, NV2781 for CDK2, NV2811 for CDK4, NV2841 for CDK6) and 1 μg/mL of the corresponding Cyclin Expression Vector (Promega; NV2601 for CCNB1, NV2641 for CCNE1, NV2621 for CCND1, NV2631 for CCND3) using FuGENE HD Transfection Reagent (Promega; E2311). […] 20 uL/well of 3× Intracellular TE Nano-Glo Substrate/Inhibitor (Promega; N2162) were added to 384-well plates and incubated for 3 minutes at room temperature. NanoBRET signals (donor emission wavelength at 450 nm, acceptor emission wavelength at 610 nm) were measured using Envision plate reader (PerkinElmer). NanoBRET ratio was calculated by: BRET Ratio=raw signal for acceptor/raw signal for donor. Dose response curve normalized to DMSO control was plotted using four-parameter logistic model for IC50 calculation.

[2] = test system: Phospho-Rb Ser807/811 in OVCAR3 cells; experiment: OVCAR3 Phospho-Rb Ser807/811 HTRF assay; settings: Homo sapiens, OVCAR-3, 1 h, OVCAR3 cells, Phospho-Rb Ser807/811 HTRF, 1 hour incubation; read-out: pRb-OVCAR3 IC50
Protocol: Cells were trypsinized and resuspended in 1 mM hydroxyurea (Sigma; H8627), 90% RPMI and 10% fetal bovine serum. […] Dose response curve normalized to DMSO control was plotted using four-parameter logistic model for IC50 calculation.

[3] = biological target: T2, CDK2-NanoLuc fusion with CCNE1 in 293T or 293 cells (Homo sapiens, UniProt P24941); experiment: NanoBRET Target Engagement (TE) Intracellular Kinase Assay, CDK2/CCNE1; settings: NanoBRET TE intracellular kinase assay, 2-hour incubation, read-out: NanoBRET-CDK2/E1 IC50
T2 construct: host or cells: 293T (ATCC CRL-3216) or 293 (ATCC CRL-1573)
Protocol: as §1

T1 sequence (P11802 whole entry, the tested form may be a part): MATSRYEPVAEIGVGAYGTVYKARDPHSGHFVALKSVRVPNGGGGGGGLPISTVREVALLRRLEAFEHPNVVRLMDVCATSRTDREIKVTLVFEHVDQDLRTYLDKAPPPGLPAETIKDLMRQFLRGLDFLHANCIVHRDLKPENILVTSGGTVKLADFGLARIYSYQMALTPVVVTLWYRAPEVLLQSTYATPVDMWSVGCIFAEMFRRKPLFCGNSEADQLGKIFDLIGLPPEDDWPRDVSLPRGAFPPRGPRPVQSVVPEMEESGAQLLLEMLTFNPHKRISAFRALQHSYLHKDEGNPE
T1 sequence (P24385 whole entry partner, the tested form may be a part): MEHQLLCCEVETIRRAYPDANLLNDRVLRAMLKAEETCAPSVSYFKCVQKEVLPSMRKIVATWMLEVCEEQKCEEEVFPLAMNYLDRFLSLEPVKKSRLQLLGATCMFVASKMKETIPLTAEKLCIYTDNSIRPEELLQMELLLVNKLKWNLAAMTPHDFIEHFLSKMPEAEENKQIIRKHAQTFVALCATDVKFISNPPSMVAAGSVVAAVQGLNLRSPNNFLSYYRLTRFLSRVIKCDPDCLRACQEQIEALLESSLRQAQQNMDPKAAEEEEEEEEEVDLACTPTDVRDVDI

COc1cc(O)c(C=O)c(OCC(=O)Nc2cc([C@H]3CC[C@@H](OC(=O)N4[C@H](C)C[C@@H]4C)C3)[nH]n2)c1 [Compound 123]
pIC50 [1]: 5.59
pIC50 [2]: 7.57
pIC50 [3]: 8.58

COc1cc(O)c(C=O)c(OCC(=O)Nc2cc([C@H]3CC[C@@H](OC(=O)N4C[C@@H](F)[C@H](F)C4)C3)n[nH]2)c1 [Compound 124]
pIC50 [1]: 5.59
pIC50 [2]: 7.42
pIC50 [3]: 8.70

COc1cc(O)c(C=O)c(OCC(=O)Nc2cc([C@H]3CC[C@@H](OC(=O)N4C[C@H](F)C[C@@H]4C)C3)n[nH]2)c1 [Compound 125]
pIC50 [1]: 5.81
pIC50 [2]: 7.27
pIC50 [3]: 8.51

COc1cc(O)c(C=O)c(OCC(=O)Nc2cc([C@H]3CC[C@@H](OC(=O)NCC#N)C3)[nH]n2)c1 [Compound 127]
pIC50 [1]: 5.07
pIC50 [2]: 7.01
pIC50 [3]: 7.59

COc1cc(O)c(C=O)c(OCC(=O)Nc2cc([C@H]3CC[C@@H](OC(=O)N4CC(F)(F)C4)C3)[nH]n2)c1 [Compound 129]
pIC50 [1]: 5.12
pIC50 [2]: 7.35
pIC50 [3]: 8.71

COc1cc(O)c(C=O)c(O[C@H](C)C(=O)Nc2cc([C@H]3CC[C@@H](OC(=O)NC4(C)CC4)C3)[nH]n2)c1 [Compound 130, (1R,3S)-3-(3-((R)-2-(2-formyl-3-hydroxy-5-methoxyphenoxy)propanamido)-1H-pyrazol-5-yl)cyclopentyl (1-methylcyclopropyl)carbamate]
pIC50 [1]: 6.06
pIC50 [2]: 7.60
pIC50 [3]: 8.43

COc1cc(O)c(C=O)c(OCC(=O)Nc2cc([C@H]3CC[C@@H](OC(=O)N4CCC[C@H](C#N)C4)C3)[nH]n2)c1 [Compound 131, (1R,3S)-3-{5-[2-(2-formyl-3-hydroxy-5-methoxyphenoxy)acetamido]-2H-pyrazol-3-yl}cyclopentyl (3S)-3-cyanopiperidine-1-carboxylate]
pIC50 [1]: 6.16
pIC50 [2]: 7.90
pIC50 [3]: 8.49

COc1cc(O)c(C=O)c(OCC(=O)Nc2cc([C@H]3CC[C@@H](OC(=O)N[C@@H]4C[C@@H]4F)C3)[nH]n2)c1 [Compound 133]
pIC50 [1]: 5.55
pIC50 [2]: 7.71
pIC50 [3]: 8.35

COc1cc(O)c(C=O)c(OCC(=O)Nc2cc([C@H]3CC[C@@H](OC(=O)N[C@@H](C)C(F)F)C3)[nH]n2)c1 [Compound 134]
pIC50 [1]: 5.42
pIC50 [2]: 7.43
pIC50 [3]: 8.49

CCCONC(=O)O[C@@H]1CC[C@H](c2cc(NC(=O)COc3cc(OC)cc(O)c3C=O)n[nH]2)C1 [Compound 135]
pIC50 [1]: < 5.00
pIC50 [2]: 7.03
pIC50 [3]: 8.47

COc1cc(O)c(C=O)c(OCC(=O)Nc2cc([C@H]3CC[C@@H](OC(=O)NC4(CF)CC4)C3)[nH]n2)c1 [Compound 136]
pIC50 [1]: 5.85
pIC50 [2]: 7.77
pIC50 [3]: 8.65

COc1cc(O)c(C=O)c(OCC(=O)Nc2cc([C@H]3CC[C@@H](OC(=O)NCc4cnn(C)c4)C3)[nH]n2)c1 [Compound 137]
pIC50 [1]: < 5.00
pIC50 [2]: 6.53
pIC50 [3]: 7.67

COc1cc(O)c(C=O)c(OCC(=O)Nc2cc([C@H]3CC[C@@H](OC(=O)N[C@H]4C[C@@H](C#N)C4)C3)[nH]n2)c1 [Compound 138]
pIC50 [1]: 5.23
pIC50 [2]: 7.09
pIC50 [3]: 8.33

Cc1cc(O)c(C=O)c(OCC(=O)Nc2cc([C@H]3CC[C@@H](OC(=O)NC4(C#N)CC4)C3)[nH]n2)c1 [Compound 139]
pIC50 [1]: 5.40
pIC50 [2]: 6.75
pIC50 [3]: 7.89

COc1cc(O)c(C=O)c(OCC(=O)Nc2cc([C@H]3CC[C@@H](OC(=O)NC4(C(F)F)CC4)C3)[nH]n2)c1 [Compound 140, (1R,3S)-3-{5-[2-(2-formyl-3-hydroxy-5-methoxyphenoxy)acetamido]-2H-pyrazol-3-yl}cyclopentyl N-[1-(difluoromethyl)cyclopropyl]carbamate]
pIC50 [1]: 5.97
pIC50 [2]: 7.79
pIC50 [3]: 8.55

CCc1cc(O)c(C=O)c(OCC(=O)Nc2cc([C@H]3CC[C@@H](OC(=O)NC4(C)CC4)C3)[nH]n2)c1 [Compound 141]
pIC50 [1]: 5.26
pIC50 [2]: 7.00
pIC50 [3]: 8.73

COc1cc(O)c(C=O)c(OCC(=O)Nc2cc([C@H]3CC[C@@H](OC(=O)NCC(F)F)C3)[nH]n2)c1 [Compound 142]
pIC50 [1]: 5.15
pIC50 [2]: 7.27
pIC50 [3]: 8.42

COc1cc(O)c(C=O)c(OCC(=O)Nc2cc([C@H]3CC[C@@H](OC(=O)NC[C@H]4CCO4)C3)[nH]n2)c1 [Compound 143]
pIC50 [1]: < 5.00
pIC50 [2]: 6.85
pIC50 [3]: 7.88

C#CCN(CC)C(=O)O[C@@H]1CC[C@H](c2cc(NC(=O)COc3cc(OC)cc(O)c3C=O)n[nH]2)C1 [Compound 144]
pIC50 [1]: 5.63
pIC50 [2]: 7.54
pIC50 [3]: 8.63

Cc1cc(O)c(C=O)c(OCC(=O)Nc2cc([C@H]3CC[C@@H](OC(=O)NC4(C)CC4)C3)[nH]n2)c1 [Compound 145]
pIC50 [1]: 5.39
pIC50 [2]: 7.19
pIC50 [3]: 8.46

COc1cc(O)c(C=O)c(OCC(=O)Nc2cc([C@H]3CC[C@@H](OC(=O)NC4(CC#N)CC4)C3)[nH]n2)c1 [Compound 146]
pIC50 [1]: 5.62
pIC50 [2]: 7.39
pIC50 [3]: 8.01

CCN(CC#N)C(=O)O[C@@H]1CC[C@H](c2cc(NC(=O)COc3cc(OC)cc(O)c3C=O)n[nH]2)C1 [Compound 147]
pIC50 [1]: 5.65
pIC50 [2]: 7.86
pIC50 [3]: 8.55

COc1cc(O)c(C=O)c(OCC(=O)Nc2cc([C@H]3CC[C@@H](OC(=O)NC4(C#N)CCC4)C3)[nH]n2)c1 [Compound 148]
pIC50 [1]: 5.37
pIC50 [2]: 6.95
pIC50 [3]: 8.16

COc1cc(O)c(C=O)c(OCC(=O)Nc2cc([C@H]3CC[C@@H](OC(=O)NC4COC4)C3)[nH]n2)c1 [Compound 149]
pIC50 [1]: < 5.00
pIC50 [2]: 6.41
pIC50 [3]: 7.69

COc1cc(O)c(C=O)c(OCC(=O)Nc2cc([C@H]3CC[C@@H](OC(=O)N[C@H]4C[C@@H](C)C4)C3)[nH]n2)c1 [Compound 150]
pIC50 [1]: 5.41
pIC50 [2]: 6.83
pIC50 [3]: 8.64

COc1cc(O)c(C=O)c(OCC(=O)Nc2cc([C@H]3CC[C@@H](OC(=O)N(C(C)C)C(C)C)C3)[nH]n2)c1 [Compound 151]
pIC50 [1]: 5.54
pIC50 [2]: 7.44
pIC50 [3]: 8.46

COc1cc(O)c(C=O)c(OCC(=O)Nc2cc([C@H]3CC[C@@H](OC(=O)N4CC[C@H](C#N)C4)C3)[nH]n2)c1 [Compound 152]
pIC50 [1]: 5.16
pIC50 [2]: 7.52
pIC50 [3]: 8.12

COc1cc(O)c(C=O)c(OCC(=O)Nc2cc([C@H]3CC[C@@H](OC(=O)N4CC(C#N)C4)C3)[nH]n2)c1 [Compound 153]
pIC50 [1]: < 5.00
pIC50 [2]: 7.30
pIC50 [3]: 7.88

COc1cc(O)c(C=O)c(OCC(=O)Nc2cc([C@H]3CC[C@@H](OC(=O)N4[C@@H]5CC[C@H]4C[C@H](C#N)C5)C3)[nH]n2)c1 [Compound 154]
pIC50 [1]: 5.68
pIC50 [2]: 7.56
pIC50 [3]: 8.11

COc1cc(O)c(C=O)c(OCC(=O)Nc2cc([C@H]3CC[C@@H](OC(=O)N(C)CCC#N)C3)[nH]n2)c1 [Compound 155]
pIC50 [1]: 5.20
pIC50 [2]: 7.63
pIC50 [3]: 8.12

COc1cc(O)c(C=O)c(OCC(=O)Nc2cc([C@H]3CC[C@@H](OC(=O)NCCCC#N)C3)[nH]n2)c1 [Compound 156]
pIC50 [1]: < 5.00
pIC50 [2]: 7.47
pIC50 [3]: 8.00

COc1cc(O)c(C=O)c(OCC(=O)Nc2cc([C@H]3CC[C@@H](OC(=O)N4C[C@@H]5CC[C@H]4CO5)C3)[nH]n2)c1 [Compound 157]
pIC50 [1]: 5.15
pIC50 [2]: 7.15
pIC50 [3]: 8.17

COc1cc(O)c(C=O)c(OCC(=O)Nc2cc([C@H]3CC[C@@H](OC(=O)N4C[C@H]5CC[C@@H]4CO5)C3)[nH]n2)c1 [Compound 158]
pIC50 [1]: 5.41
pIC50 [2]: 7.61
pIC50 [3]: 8.25

COc1cc(O)c(C=O)c(OCC(=O)Nc2cc([C@H]3CC[C@@H](OC(=O)NC(C)(C)C#N)C3)[nH]n2)c1 [Compound 159]
pIC50 [1]: 5.32
pIC50 [2]: 7.37
pIC50 [3]: 7.97

COc1cc(O)c(C=O)c(OCC(=O)Nc2cc([C@H]3CC[C@@H](OC(=O)NN(C)C)C3)[nH]n2)c1 [Compound 160]
pIC50 [1]: < 5.00
pIC50 [2]: 7.10
pIC50 [3]: 8.13

Cc1cc(O)c(C=O)c(OCC(=O)Nc2cc([C@H]3CC[C@@H](OC(=O)N4C5CCC4CC5)C3)[nH]n2)c1 [Compound 161]
pIC50 [1]: 5.13
pIC50 [2]: 7.16
pIC50 [3]: 8.55

Cc1cc(O)c(C=O)c(OCC(=O)Nc2cc([C@H]3CC[C@@H](OC(=O)N4CCC4(C)C)C3)[nH]n2)c1 [Compound 162]
pIC50 [1]: 5.46
pIC50 [2]: 7.43
pIC50 [3]: 8.51

COc1cc(O)c(C=O)c(OCC(=O)Nc2cc([C@H]3CC[C@@H](OC(=O)N[C@@H](C)CC#N)C3)[nH]n2)c1 [Compound 163]
pIC50 [1]: 5.20
pIC50 [2]: 7.56
pIC50 [3]: 7.99

Source: US20250289789A1, “REVERSIBLE LYSINE COVALENT MODIFIERS OF CDK2 AND USES THEREOF” (Terremoto Biosciences, Inc., priority 2023, published 2025)
